Reference: ChEMBL document CHEMBL3244242, “3-Benzazocine amidinium nitronates. An unusual type of opiate antagonist” (J Med Chem, 1978)
Active and inactive are the calls of the source. The rule behind the calls is not given here.

Key:
[1] = test system: Mus musculus; assay: Analgesic activity in Swiss albino mouse at 5 to 20 mg/kg administered intramuscularly by mouse tail-flick test; format: functional, organism-based
[2] = test system: Mus musculus; assay: Inhibition of morphine sulfate-induced analgesic activity in Swiss albino mouse at 20 mg/kg administered intramuscularly measured 30 mins post morphine sulfate challenge by mouse tail-flick test; format: functional, organism-based; parameters: dose 20 mg/kg
[3] = Solubility of the compound in water; format: physicochemical; details: buffer
[4] = test system: Mus musculus; assay: Inhibition of morphine sulfate-induced analgesic activity in Swiss albino mouse at 20 mg/kg administered intramuscularly measured 8 hrs post morphine sulfate challenge by mouse tail-flick test; format: functional; details: route intramuscular
[5] = test system: Mus musculus; assay: Inhibition of morphine sulfate-induced analgesic activity in sc dosed Swiss albino mouse measured 30 mins post morphine sulfate challenge by mouse tail-flick test; format: functional
[6] = test system: Mus musculus; assay: Inhibition of morphine sulfate-induced analgesic activity in Swiss albino mouse at 20 mg/kg, sc measured 48 hrs post morphine sulfate challenge by mouse tail-flick test relative to naloxone hydrochloride; format: functional, organism-based; parameters: dose 20 mg/kg
[7] = test system: Mus musculus; assay: Inhibition of morphine sulfate-induced analgesic activity in Swiss albino mouse at 20 mg/kg, sc measured 24 hrs post morphine sulfate challenge by mouse tail-flick test; format: functional; details: route subcutaneous
[8] = test system: Mus musculus; assay: Analgesic activity in Swiss albino mouse at 20 mg/kg, sc by mouse tail-flick test; format: functional, organism-based; parameters: dose 20 mg/kg

SMILES	Activity [1]	Activity [2]	solubility [3]	Imax [4] [%]	AD50 [5] [mg/kg]	inhibition [6]	Imax [7] [%]	Activity [8]
CN(C)C(=[NH2+])Cc1ccccc1.CN(C)C1=NC2c3cc([N+](=O)[O-])ccc3C(=[N+]([O-])[O-])C(C1c1ccccc1)C2[N+](=O)[O-] (centres undefined)	inactive	inactive	Insoluble					
CN(C)C(=[NH2+])Cc1ccccc1.CN(C)C1=NC2C(=[N+]([O-])[O-])c3ccc([N+](=O)[O-])cc3C(C1c1ccccc1)C2[N+](=O)[O-] (centres undefined)	inactive		Insoluble	50				
C[C@@H]1C2Cc3ccc([N+](=O)[O-])cc3[C@@]1(C)CCN2CC1CC1					9.6			
CN(C)C(=[NH2+])Cc1ccccc1.CN(C)C1=NC2C(=[N+]([O-])[O-])c3c(cccc3[N+](=O)[O-])C(C1c1ccccc1)C2[N+](=O)[O-] (centres undefined)			Insoluble			Active	50	inactive
CN(C)C(=[NH2+])Cc1ccccc1.CN(C)C1=NC2c3ccccc3C(=[N+]([O-])[O-])C(C1c1ccccc1)C2[N+](=O)[O-] (centres undefined)	inactive	inactive	Insoluble					
